Test results as given in BigSolDB 2.1.

CC12CCC(CC1=O)C2(C)C (stereo not drawn)
Conditions	solubility (mole fraction)
in acetone, 303.15 K	0.553
in acetone, 308.15 K	0.571
in acetone, 313.55 K	0.594
in acetone, 319.25 K	0.614
in acetone, 323.15 K	0.627
in ethanol, 303.15 K	0.365
in ethanol, 308.15 K	0.396
in ethanol, 313.15 K	0.412
in ethanol, 318.15 K	0.451
in ethanol, 322.95 K	0.508
in ethanol, 327.95 K	0.538
in ethanol, 333.35 K	0.588
in ethanol, 338.15 K	0.63
in ethanol, 343.15 K	0.699
in p-cymene, 303.85 K	0.58
in p-cymene, 308.05 K	0.589
in p-cymene, 313.15 K	0.601
in p-cymene, 317.95 K	0.609
in p-cymene, 323.65 K	0.624
in p-cymene, 328.15 K	0.631
in p-cymene, 333.35 K	0.641
in p-cymene, 337.95 K	0.652
in p-cymene, 343.05 K	0.664
in p-xylene, 303.05 K	0.6
in p-xylene, 308.15 K	0.637
in p-xylene, 313.15 K	0.66
in p-xylene, 318.15 K	0.683
in p-xylene, 323.25 K	0.714
in p-xylene, 327.85 K	0.736
in p-xylene, 328.15 K	0.739
in p-xylene, 333.15 K	0.77
in p-xylene, 338.35 K	0.795
in p-xylene, 343.15 K	0.824
